Laboratory results: the NIST ThermoML archive (doi:10.1021/acs.jced.9b00041)
± gives the expanded uncertainty stated by the source.

Assays:
[1] = 298.15 K; 101.33 kPa; Liquid; Vibrating tube method
[2] = wn = mass fraction of the nth substance listed; settings: 298.15 K; 100 kPa; Liquid; Vibrating tube method; w2 = 0.089

Row | Compound | mass density [1] | mass density [2]
1 | CCCC[n+]1ccn(C)c1.O=S(=O)([N-]S(=O)(=O)C(F)(F)F)C(F)(F)F | 1436.46 ± 10 kg/m3 | 
2 | CC(O)C(=O)O (centres undefined) [2-hydroxypropanoic acid] | 1202.57 ± 35 kg/m3 | 
3 | CC(O)C(=O)O (centres undefined) [2-hydroxypropanoic acid] + O |  | 1202.57 ± 10 kg/m3
4 | CC(=O)CCC(=O)O [4-oxopentanoic acid] | 1135.71 ± 10 kg/m3 | 
